Results published in US20220062240A1, “METHODS OF TREATING CANCER USING A CLK INHIBITOR” (BioSplice Therapeutics, Inc., priority 2018, published 2022).
Where two headings read alike, the source gives them in different places. One block for each compound: values may come before it.

What was measured:
CLK2 = target: T1, CLK2 (Homo sapiens, UniProt P49760); assay: CLK2 kinase activity assay (Z-lyte, Ser/Thr 6 peptide); format: biochemical; conditions: recombinant CLK2 kinase, ATP 60 μM; read-out: EC50
T1 construct: purchased Thermo Fisher (Life Technologies), Z'-LYTE Kinase Assay Kits
Description: All reactions were performed in duplicate.

BT-549 = assay: CellTiter-Glo Viability Assay, breast cancer; format: cell-based; conditions: Homo sapiens, 96 h; BT-549, breast cancer, four days; read-out: EC50
CAMA1 = assay: CellTiter-Glo Viability Assay, breast cancer; format: cell-based; conditions: Homo sapiens, CAMA-1, 96 h; CAMA1, breast cancer, four days; read-out: EC50
DU4475 = assay: CellTiter-Glo Viability Assay, breast cancer; format: cell-based; conditions: Homo sapiens, DU-4475, 96 h; DU4475, breast cancer, four days; read-out: EC50
HCC1599 = assay: CellTiter-Glo Viability Assay, breast cancer; format: cell-based; conditions: Homo sapiens, 96 h; HCC1599, breast cancer, four days; read-out: EC50
MCF7 = assay: CellTiter-Glo Viability Assay, breast cancer; format: cell-based; conditions: Homo sapiens, 96 h; MCF7, breast cancer, four days; read-out: EC50
MDA-MB-231-Luc = assay: CellTiter-Glo Viability Assay, breast cancer; format: cell-based; conditions: Homo sapiens, 96 h; MDA-MB-231-Luc, breast cancer, four days; read-out: EC50
T47D = assay: CellTiter-Glo Viability Assay, breast cancer; format: cell-based; conditions: Homo sapiens, 96 h, breast cancer, four days, read-out: EC50
ZR-75-1 = assay: CellTiter-Glo Viability Assay, breast cancer; format: cell-based; conditions: Homo sapiens, 96 h; ZR-75-1, breast cancer, four days; read-out: EC50
all 50 cell lines = assay: CellTiter-Glo Viability Assay, average across all cell lines; format: cell-based; conditions: Homo sapiens; across all 50 cell lines; read-out: average EC50 for inhibition of cancer cell proliferation
Procedure, shortened: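 4-day proliferation, 37° C/5% CO2; 300-3,000 cells/well; compound in duplicate vs DMSO controls. Panel: breast, colorectal, heme/lymphoid, liver, lung, ovarian, pancreatic, prostate lines. Read-out: CellTiter-Glo ATP luminescence, EC50 from dose-response.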

[1] = system: colorectal cancer (6 cell lines); assay: CellTiter-Glo Viability Assay, colorectal cancer; format: cell-based; conditions: Homo sapiens, inhibition of cancer cell proliferation
[2] = system: haematopoietic & lymphoid tumors (13 cell lines); assay: CellTiter-Glo Viability Assay, haematopoietic & lymphoid tumors; format: cell-based; conditions: Homo sapiens, inhibition of cancer cell proliferation
[3] = system: liver cancer (3 cell lines); assay: CellTiter-Glo Viability Assay, liver cancer; format: cell-based; conditions: Homo sapiens, inhibition of cancer cell proliferation
[4] = system: lung cancer (4 cell lines); assay: CellTiter-Glo Viability Assay, lung cancer; format: cell-based; conditions: Homo sapiens, inhibition of cancer cell proliferation
[5] = system: ovarian cancer (4 cell lines); assay: CellTiter-Glo Viability Assay, ovarian cancer; format: cell-based; conditions: Homo sapiens, inhibition of cancer cell proliferation
[6] = system: pancreatic cancer (8 cell lines); assay: CellTiter-Glo Viability Assay, pancreatic cancer; format: cell-based; conditions: Homo sapiens, inhibition of cancer cell proliferation
[7] = system: prostate cancer (5 cell lines); assay: CellTiter-Glo Viability Assay, prostate cancer; format: cell-based; conditions: Homo sapiens
CLK3 = CLK3 (Homo sapiens, UniProt P49761); assay: CLK3 kinase activity assay (Z-lyte, Ser/Thr 18 peptide)
[8] = HCT-116, HCT116 cell line, read-out: Colorectal cancer, EC50 (μM) HCT116
[9] = HT-29, HT29 cell line, read-out: Colorectal cancer, EC50 (μM) HT29
[10] = SW-620, SW620 cell line, read-out: Colorectal cancer, EC50 (μM) SW620
[11] = DLD-1 cell line, read-out: Colorectal cancer, EC50 (μM) DLD-1
[12] = SW48 cell line, read-out: Colorectal cancer, EC50 (μM) SW48
[13] = SW480 cell line, read-out: Colorectal cancer, EC50 (μM) SW480
[14] = DND41, DND-41 cell line, read-out: Haematopoietic & Lymphoid tumors, EC50 (μM) DND-41
[15] = MV4-11, MV-4-11 cell line, read-out: Haematopoietic & Lymphoid tumors, EC50 (μM) MV-4-11
[16] = Rec1, REC-1 cell line, read-out: Haematopoietic & Lymphoid tumors, EC50 (μM) REC-1
[17] = SU-DHL-4, SUDHL4 cell line, read-out: Haematopoietic & Lymphoid tumors, EC50 (μM) SUDHL4
[18] = HL-60 cell line, read-out: Haematopoietic & Lymphoid tumors, EC50 (μM) HL-60
[19] = JM1 cell line, read-out: Haematopoietic & Lymphoid tumors, EC50 (μM) JM1
[20] = JURKAT, Clone E6-1 cell line, read-out: Haematopoietic & Lymphoid tumors, EC50 (μM) JURKAT, Clone E6-1
[21] = JeKo-1 cell line, read-out: Haematopoietic & Lymphoid tumors, EC50 (μM) JeKo-1
[22] = KASUMI-1 cell line, read-out: Haematopoietic & Lymphoid tumors, EC50 (μM) KASUMI-1
[23] = Loucy cell line, read-out: Haematopoietic & Lymphoid tumors, EC50 (μM) Loucy
[24] = MOLT-4 cell line, read-out: Haematopoietic & Lymphoid tumors, EC50 (μM) MOLT-4
[25] = TF-1 cell line, read-out: Haematopoietic & Lymphoid tumors, EC50 (μM) TF-1
[26] = TOLEDO cell line, read-out: Haematopoietic & Lymphoid tumors, EC50 (μM) TOLEDO
[27] = SNU-398, SNU398 cell line, read-out: Liver cancer, EC50 SNU398
[28] = HEPG2 cell line, read-out: Liver cancer, EC50 HEPG2
[29] = PLC/PRF/5 cell line, read-out: Liver cancer, EC50 PLC/PRF/5
[30] = A-427, A427 cell line, read-out: Lung cancer, EC50 (μM) A427
[31] = HCC78, HCC-78 cell line, read-out: Lung cancer, EC50 (μM) HCC-78
[32] = NCI-H460 cell line, read-out: Lung cancer, EC50 (μM) NCI-H460
[33] = NCI-H522 cell line, read-out: Lung cancer, EC50 (μM) NCI-H522
[34] = PA-1, PA1 cell line, read-out: Ovarian cancer, EC50 (μM) PA1
[35] = TOV112D, TOV-112D cell line, read-out: Ovarian cancer, EC50 (μM) TOV-112D
[36] = OV-90 cell line, read-out: Ovarian cancer, EC50 (μM) OV-90
[37] = OVCAR-3 cell line, read-out: Ovarian cancer, EC50 (μM) OVCAR-3
[38] = BXPC-3, BxPC3 cell line, read-out: Pancreatic cancer, EC50 BxPC3
[39] = CAPAN-1, Capan1 cell line, read-out: Pancreatic cancer, EC50 Capan1
[40] = Capan-2, Capan2 cell line, read-out: Pancreatic cancer, EC50 Capan2
[41] = MIA PaCa-2 cell line, read-out: Pancreatic cancer, EC50 MIA PaCa-2
[42] = PANC 05.04 cell line, read-out: Pancreatic cancer, EC50 PANC 05.04
[43] = PANC-1 cell line, read-out: Pancreatic cancer, EC50 PANC-1
[44] = UPAFII cell line, read-out: Pancreatic cancer, EC50 UPAFII
[45] = DU-145, read-out: Prostate cancer EC50 Du-145
[46] = PC-3, PC3 cell line, inhibition of cancer cell proliferation, read-out: Prostate cancer EC50 PC3
[47] = 22Rv1 cell line, inhibition of cancer cell proliferation, read-out: Prostate cancer EC50 22Rv1
[48] = LNCap clone FGC cell line, inhibition of cancer cell proliferation, read-out: Prostate cancer EC50 LNCap clone FGC
[49] = VCaP (Sigma) cell line, inhibition of cancer cell proliferation, read-out: Prostate cancer EC50 VCaP (Sigma)

T1 sequence (P49760 whole entry): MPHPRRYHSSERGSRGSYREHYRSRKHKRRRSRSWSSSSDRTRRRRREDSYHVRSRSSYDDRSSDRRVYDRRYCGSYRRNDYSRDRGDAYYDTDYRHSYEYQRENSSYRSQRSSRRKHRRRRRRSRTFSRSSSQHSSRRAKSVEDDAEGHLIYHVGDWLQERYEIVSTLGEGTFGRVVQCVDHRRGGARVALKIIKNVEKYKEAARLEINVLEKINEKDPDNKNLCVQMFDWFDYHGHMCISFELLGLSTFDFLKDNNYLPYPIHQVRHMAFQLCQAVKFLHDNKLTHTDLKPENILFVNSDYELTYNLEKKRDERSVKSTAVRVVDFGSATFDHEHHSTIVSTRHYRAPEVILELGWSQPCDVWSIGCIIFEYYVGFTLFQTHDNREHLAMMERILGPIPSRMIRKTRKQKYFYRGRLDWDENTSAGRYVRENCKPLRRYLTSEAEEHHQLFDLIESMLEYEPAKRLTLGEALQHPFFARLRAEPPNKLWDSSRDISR
Chain of CLK3 (P49761 whole entry): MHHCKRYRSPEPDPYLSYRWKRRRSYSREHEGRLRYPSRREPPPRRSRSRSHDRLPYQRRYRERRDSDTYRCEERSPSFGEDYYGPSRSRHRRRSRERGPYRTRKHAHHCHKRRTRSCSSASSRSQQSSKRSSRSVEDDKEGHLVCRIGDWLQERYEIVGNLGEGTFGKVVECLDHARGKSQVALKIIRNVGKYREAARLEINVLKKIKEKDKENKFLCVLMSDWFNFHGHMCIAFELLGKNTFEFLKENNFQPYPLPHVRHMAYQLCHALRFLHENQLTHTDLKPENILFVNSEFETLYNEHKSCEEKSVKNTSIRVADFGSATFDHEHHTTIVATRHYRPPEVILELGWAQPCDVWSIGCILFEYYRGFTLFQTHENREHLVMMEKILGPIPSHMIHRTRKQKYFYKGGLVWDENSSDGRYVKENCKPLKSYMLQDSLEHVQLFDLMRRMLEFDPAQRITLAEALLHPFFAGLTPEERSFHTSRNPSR

EC50 (CLK2): 0.0006 µM
EC50 (BT-549): 0.786 µM
EC50 (CAMA1): 3.85 µM
EC50 (DU4475): 0.411 µM
EC50 (HCC1599): 0.367 µM
EC50 (MCF7): 3.39 µM
EC50 (MDA-MB-231-Luc): 2.04 µM
EC50 (T47D): 3.55 µM
EC50 (ZR-75-1): 1.84 µM
EC50 [1, 8]: 0.611 µM
EC50 [1, 9]: 1.7 µM
EC50 [1, 10]: 0.418 µM
EC50 [1, 11]: 0.644 µM
EC50 [1, 12]: 0.151 µM
EC50 [1, 13]: 0.769 µM
EC50 [2, 14]: 0.798 µM
EC50 [2, 15]: 0.057 µM
EC50 [2, 16]: 0.261 µM
EC50 [2, 17]: 0.779 µM
EC50 [2, 18]: 1.64 µM
EC50 [2, 19]: 0.237 µM
EC50 [2, 20]: 0.88 µM
EC50 [2, 21]: 0.201 µM
EC50 [2, 22]: 0.273 µM
EC50 [2, 23]: 0.581 µM
EC50 [2, 24]: 0.999 µM
EC50 [2, 25]: 1.31 µM
EC50 [2, 26]: 0.182 µM
EC50 [3, 27]: 0.45 µM
EC50 [3, 28]: 1.46 µM
EC50 [3, 29]: 3.16 µM
EC50 [4, 30]: 0.619 µM
EC50 [4, 31]: 3.02 µM
EC50 [4, 32]: 0.856 µM
EC50 [4, 33]: 0.57 µM
EC50 [5, 34]: 0.819 µM
EC50 [5, 35]: 0.533 µM
EC50 [5, 36]: 1.98 µM
EC50 [5, 37]: 0.568 µM
EC50 [6, 38]: 2.03 µM
EC50 [6, 39]: 2.09 µM
EC50 [6, 40]: 2.71 µM
EC50 [6, 41]: 0.438 µM
EC50 [6, 42]: 2.26 µM
EC50 [6, 43]: 2.16 µM
EC50 [6, 44]: 1.03 µM
EC50 [7, 45]: 1.26 µM
EC50 [7, 46]: 1.23 µM
EC50 [7, 47]: 0.672 µM
EC50 [7, 48]: 0.779 µM
EC50 [7, 49]: 1.48 µM
EC50 (CLK3): 0.0491 µM
Compound: CN1CCC(Oc2ccc(NC(=O)c3n[nH]c4cc(F)c(-c5cnn(C)c5)cc34)cc2)CC1 [Compound 61]
EC50 (all 50 cell lines): 1.22 µM

EC50 (CLK2): 0.0047 µM
EC50 (BT-549): 2.89 µM
EC50 (CAMA1): 2.13 µM
EC50 (DU4475): 2.5 µM
EC50 (HCC1599): > 10 µM
EC50 (MCF7): > 10 µM
EC50 (MDA-MB-231-Luc): 3.79 µM
EC50 (T47D): > 10 µM
EC50 (ZR-75-1): 4.17 µM
EC50 [1, 8]: 0.718 µM
EC50 [1, 9]: 1.17 µM
EC50 [1, 10]: 0.49 µM
EC50 [1, 11]: 0.848 µM
EC50 [1, 12]: 0.454 µM
EC50 [1, 13]: 1.46 µM
EC50 [2, 14]: 1.37 µM
EC50 [2, 15]: 0.292 µM
EC50 [2, 16]: 0.663 µM
EC50 [2, 17]: 1.11 µM
EC50 [2, 18]: 2.85 µM
EC50 [2, 19]: 0.645 µM
EC50 [2, 20]: 2.14 µM
EC50 [2, 21]: 0.884 µM
EC50 [2, 22]: 1.22 µM
EC50 [2, 23]: 1.07 µM
EC50 [2, 24]: 1.46 µM
EC50 [2, 25]: 2.11 µM
EC50 [2, 26]: 0.811 µM
EC50 [3, 27]: 0.459 µM
EC50 [3, 28]: 3.86 µM
EC50 [3, 29]: > 10 µM
EC50 [4, 30]: 1.5 µM
EC50 [4, 31]: 6.86 µM
EC50 [4, 32]: 2.72 µM
EC50 [4, 33]: 0.895 µM
EC50 [5, 34]: 1.25 µM
EC50 [5, 35]: 1.23 µM
EC50 [5, 36]: 6.93 µM
EC50 [5, 37]: 1.2 µM
EC50 [6, 38]: 1.71 µM
EC50 [6, 39]: 1.89 µM
EC50 [6, 40]: 2.63 µM
EC50 [6, 41]: 1.01 µM
EC50 [6, 42]: 2.89 µM
EC50 [6, 43]: 5.42 µM
EC50 [6, 44]: 0.983 µM
EC50 [7, 45]: 2.69 µM
EC50 [7, 46]: 3.35 µM
EC50 [7, 47]: 1.21 µM
EC50 [7, 48]: 5.33 µM
EC50 [7, 49]: 2.25 µM
EC50 (CLK3): 0.0115 µM
Compound: CN1CC=C(c2cc(C(=O)Nc3cc4cc(-c5cncc(NC(C)(C)C)n5)cnc4cn3)ccn2)CC1 [Compound 86]
EC50 (all 50 cell lines): 2.71 µM
